Patent US9375436B2, “Androgen treatment in females” (priority 2004, dated 2016)
“Also recorded” adds a separate entry of the source.

How the values were obtained:
Type in all cases: in vivo, human
[1] = system: women with DOR; test: Matched case control study of embryo aneuploidy by preimplantation genetic screening (Example 11)
Procedure: In a 1:2, matched case control study, 22 consecutive women with DOR, supplemented with DHEA, underwent preimplantation genetic screening (PGS) of embryos during in vitro fertilization (IVF) cycles. Each was matched by patient age and time period of IVF with two control IVF cycles without DHEA supplementation (n=44). PGS was performed for chromosomes X, Y, 13, 16, 18, 21 and 22, and involved determination of numbers and percentages of aneuploid embryos.
We retrieved from our center's computerized research data bank a total of 22 consecutive DOR patients who underwent IVF/PGS while on DHEA supplementation. Only first IVF cycles were analyzed. These cycles were matched with the two control cycles not on DHEA supplementation, based on patient age and year of treatment (44 controls).
Normal age-specific hormone levels were defined by 95% confidence intervals at all ages, as previously reported. Since patients with DOR were, thus, uniformly diagnosed before IVF cycle protocols were determined, they were all supplemented with DHEA, and stimulation adjustments were made.
During the study period all DOR patients at our center routinely received DHEA supplementation. Those not receiving DHEA, therefore, by definition, had age-appropriate ovarian reserve, confirmed by normal anti-Müllerian hormone (AMH), follicle stimulating hormone (FSH) baseline levels and estradiol. Patients receiving DHEA supplementation were prescribed 25 mg of micronized, pharmaceutical grade DHEA, T.I.D, for at least four weeks prior to IVF cycle start. Short-term supplementation was defined as 4 to 12 weeks of DHEA prior to IVF and PGS; supplementation beyond that was considered long-term supplementation.
Patients with premature DOR, or if over 40 years of age, in first treatment cycles universally receive a so-called microdose gonadotropin releasing hormone agonist (GnRH-a) ovarian stimulation protocol, characterized by leuprolide acetate (50 μg/0.1 mL, b.i.d.; Lupron®, Abbot Pharmaceuticals, North Chicago, Ill.) and ovarian stimulation with follicle stimulating hormone (FSH, 300 IU-450 IU daily) and human menopausal gonadotropins (hMG, 150 IU). If under age 40 with normal ovarian reserve patients receive down regulation with full dose GnRH-a (1.0 mg/0.1 mL) and ovarian stimulation with up to 300 IU of gonadotropins, usually half as FSH and half as hMG. Higher luteinizing hormone (LH) contributions to ovarian stimulation, if anything, reduce embryo aneuploidy. The small difference in ovarian stimulation protocols between women with DOR and controls, therefore, potentially biases study outcome towards lower aneuploidy rates in the control population, which received a proportionally higher LH contributions to ovarian stimulation.
PGS was performed, utilizing fluorescence in situ hybridization (FISH) in routine fashion, utilizing probes for seven chromosomes (X, Y, 13, 16, 18, 21 and 22) on day three after fertilization, when embryos reached six to eight cell stages. This restricted chromosome panel is currently routinely utilized for PGS.
A general linear model was constructed to assess DHEA effects on percent aneuploidy after adjustment for age, indications for PGS, stimulation protocol and total gonadotropin dosage utilized. The latter adjustment was made as a surrogate for potential physician biases in how individual patients were stimulated, and potential effects such stimulation biases may have on ploidy.

[2] = system: patients with prior clomiphene citrate failures; test: Toronto insemination cycles after DHEA (reported study); details: DHEA pregnancies, insemination cycles with clomiphene citrate/letrozole and FSH
Procedure: In cooperation with Robert F Casper's group at Toronto's Mount Sinai Hospital, they recently reported on 47 patients with prior clomiphene citrate failures who were supplemented with 75 mg daily of DHEA for at least 60 days prior to inseminations, with stimulation by either clomiphene citrate or letrozole in combination with FSH. Controls were 46 women, matched by age and baseline FSH without DHEA supplementation.
The possibility of synergistic gonadotropin and DHEA effects is supported by reanalysis of the Toronto groups' previously noted insemination cycles, stimulated with a clomiphene citrate/letrozole and FSH protocols. […] Final conclusions await, however, further investigations.

[3] = Level of unconjugated DHEA under routine treatment protocol; details: 25 mg micronized pharmaceutical grade DHEA TID
Procedure: Routine treatment protocol involves administering about 25 mg of micronized, pharmaceutical grade DHEA, TID, to a human to uniformly raise levels of unconjugated DHEA above 350 ng/dl and, therefore, raise baseline testosterone. In six pregnancies spontaneously conceived, the distribution between female and male offspring was equal, at three and three, respectively. In contrast, in the remaining 15 offspring, which were products of pregnancies achieved through IVF, the distribution was 12 males and 3 females (p=0.035). Amongst women undergoing IVF and PGD, 53 embryos were analyzed from 17 IVF cycles, all having undergone ICSI.
The treatment protocol for long-term supplementation with DHEA that may improve oocyte and embryo quantity, quality, pregnancy rates and time to conception in women with diminished ovarian reserve, involves 25 mg of micronized, pharmaceutical grade DHEA, TID will usually uniformly raise levels of unconjugated DHEA above about 350 ng/dl, and, therefore, raise baseline testosterone. Estradiol baseline levels may also be raised.

[4] = Side effects and complications of DHEA supplementation
Procedure: We maintained in all studies and treatment protocols the oral medication dosage of about 25 mg TID (three times a day for a total of about 75 mg per day), used by our index patient. […] Studies to determine best dosaging of DHEA in the treatment of DOR have so far not been performed.
Ovarian stimulation was identical for study and control groups and comprised microdose agonist flare, followed by maximal dosage gonadotropin stimulation, using about 300-450 IU of FSH and about 150 IU of HMG. Study patients received DHEA continuously until a positive pregnancy test was obtained or until the patient dropped out of treatment. DHEA and DHEAS levels were monitored monthly, and patients were interviewed at each visit about adverse reactions to DHEA supplementation.

[5] = DHEA patients n=22, PGS by FISH, seven chromosomes

**Q.** Which results are given for `C[C@]12CC[C@H](O)CC1=CC[C@@H]1[C@@H]2CC[C@]2(C)C(=O)CC[C@@H]12` [DHEA, Dehydroepiandrosterone]?
**A.** Embryo Grades (mean ± SD) ([1]; DHEA patients n=22): 3.4±0.4; Embryos Cryopreserved (n, mean ± SD) ([1]; DHEA patients n=22): 0.7±1.6; Embryos Transferred (n, mean ± SD) ([1]; DHEA patients n=22): 1.4±0.9; Embryos Undergoing PGS (n, mean ± SD) ([1]; DHEA patients n=22): 7.3±3.9; Oocytes retrieved (n, mean ± SD) ([1]; DHEA patients n=22, 25 mg T.I.D. at least four weeks): 9.6±6.2; aneuploid embryos (absolute number) [1, 5]: 2.8±2.5; percentages of aneuploidy [1, 5]: 38.2±24.4; reduction in aneuploidy ([1]; short term supplementation (4-12 weeks), 95% CI -2.871-46.031): 21.6%; miscarriage rate (calculated on reanalysis) [2]: 28.5%; levels of unconjugated DHEA [3]: above 350 ng/dl; side effects ([4]; oral DHEA about 25 mg TID): small and primarily relate to androgen effects; also recorded: mild transient acne on the face, chest or back, oily skin and mild hair loss; also recorded: appears safe and results in only minor side effects; also recorded: limited to oily skin, rarely mild acne vulgaris and mild hair loss; complications ([4]; over 1,000 patients supplemented with DHEA): not encountered even a single complication of serious clinical significance
